Reference: patent US5543496A, “Cyclic bradykinin antagonist peptides” (Scios Nova Inc., priority 1994, dated 1996)
Positions of bridges follow the written chain, without caps; N, C: chain ends. Non-standard residues stand in square brackets, D forms with d. Residues, ends and D or L forms follow the SMILES beside them. Oic = O=C(O)[C@@H]1C[C@@H]2CCCC[C@@H]2N1; dTic = O=C(O)[C@H]1Cc2ccccc2CN1

Legend:
bradykinin receptor = biological target: T1, bradykinin receptor (Cavia porcellus, UniProt O70526); assay: 3H-Bradykinin binding assay, guinea pig ileum membranes; details: displacement of 3H-bradykinin, terminal ileum homogenate of male Hartley guinea pigs, 90 min ambient temperature
T1 construct: from tissue; host or cells: guinea pig terminal ileum, washed membrane homogenate
T1 sequence (O70526 1-372): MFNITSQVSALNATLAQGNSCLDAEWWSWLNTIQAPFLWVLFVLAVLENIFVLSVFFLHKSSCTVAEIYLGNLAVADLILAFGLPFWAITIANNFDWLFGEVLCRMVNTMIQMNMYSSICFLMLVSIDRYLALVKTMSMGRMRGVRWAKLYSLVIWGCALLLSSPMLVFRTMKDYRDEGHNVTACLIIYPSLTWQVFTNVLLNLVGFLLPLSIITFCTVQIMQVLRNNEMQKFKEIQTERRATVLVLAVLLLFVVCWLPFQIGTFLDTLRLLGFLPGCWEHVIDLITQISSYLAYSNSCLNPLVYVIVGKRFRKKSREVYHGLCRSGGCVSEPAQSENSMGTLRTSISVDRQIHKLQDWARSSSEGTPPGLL
Method: Binding of ^3 H-Bradykinin was performed using the method of D. C. Manning, R. Vavrek, J. M. Stewart, and S. H. Snyder, J. Pharmacol. Exp. Ther., (1986), 237, 504. The tissues used in the binding assay were terminal ileum from male Hartley guinea pigs (150-350 g). After dissection, tissues were placed in 20 vol of ice-cold buffer A (25 mM TES containing 0.2 g/L of 1,10-phenanthroline adjusted of pH 6.8 with ammonium hydroxide) and homogenized using a Ploytron Tissumizer at setting 6 for 15 sec. The homogenate was centrifuged at 50,000×g for 10 min, the supernatant discarded, and the pellet resuspended in ice-cold buffer A by homogenization with the Polytron. Each tissue was homogenized and centrifuged three times. The final pellet was resuspended in buffer A containing bovine serum albumin (1 g/L) and Bacitracin (0.14 g/L) to a final volume of 170 mL/g of the original tissue weight. […] Filters were dissolved in Ready-Safe Fluor (Beckman) for at least 90 min before quantitation by liquid scintillation spectrometry. Kd values were determined using saturation binding and analysis by EBDA (G. A. MacPherson, J. Pharmacol. Methods, (1985), 213), followed by LIGAND (P. J. Munson, D. Rodbard, Anal. Biochem., (1980), 220). Ki values were determined using competitive analysis followed by EBDA and LIGAND. […]

[1] = biological target: T2, bradykinin receptors on intestinal (ileal longitudinal) smooth muscle (Cavia porcellus, UniProt O70526); assay: Bradykinin antagonist activity on guinea pig ileal longitudinal smooth muscle (Schild analysis); format: cell-based; details: antagonism of bradykinin-induced contraction, 5 min exposure, read-out: pA2 (converted)
T2 construct: The longitudinal muscle was separated from the underlying circular muscle; from tissue; host or cells: guinea pig ileal longitudinal smooth muscle strips in tissue bath
T2 sequence (O70526 1-372): T1 sequence (O70526 1-372)
Method: Guinea pig intestine was removed and placed in a Petri dish containing Tyrodes solution and cut into 3-4 cm segments. The longitudinal muscle was separated from the underlying circular muscle using a cotton applicator (Paton and Zar, J. Physiol., (1968), 194:13. Muscle strips were connected to isometric force-displacement transducers (Grass or Gould) coupled to a physiograph and placed in tissue baths containing Tyrode's solution at 37° C. Each preparation was suspended under a resting tension of 2 g.
After equilibration of the tissues, appropriate volumes of bradykinin solutions were cumulatively added to the 10 mL tissue baths to increase the concentration of bradykinin in the bath step-by-step without washing out after each single dose. Higher concentrations were added only after the preceding contraction had reached a steady value. […] Antagonism of badykinin responses in the presence of antagonist were determined by repeating the cumulative addition procedure for bradykinin after the tissue has been exposed to the antagonist for 5 minutes. Three or four different concentrations of antagonist are studied sequentially in the same preparations. Responses were expressed as a percentage of the maximum contraction elicited by bradykinin in the absence of antagonist. pA2 values were calculated by Schild analysis.

[2] = anesthetized rat, intra-aortic vs intravenous administration; cited from earlier work
[3] = cited from earlier work

## NC(N)=NCCC[C@@H](N)C(=O)N[C@@H](CCCN=C(N)N)C(=O)N[C@H]1CSSC[C@@H](C(=O)N2Cc3ccccc3C[C@@H]2C(=O)N2[C@H](C(=O)N[C@@H](CCCN=C(N)N)C(=O)O)C[C@@H]3CCCC[C@@H]32)NC(=O)[C@H](Cc2ccccc2)NC(=O)CNC(=O)[C@@H]2CCCN2C1=O (H-[dR]RCPGFC[dTic][Oic]R-OH; disulfide 3-7)
Bradykinin receptor
  Ki: 14.8 ± 0.34 nM

## N=C(N)NCCC[C@@H](N)C(=O)N[C@@H](CCCNC(=N)N)C(=O)N[C@H]1CSSC[C@@H](C(=O)N[C@@H](CO)C(=O)N2Cc3ccccc3C[C@@H]2C(=O)N2[C@H](C(=O)N[C@@H](CCCNC(=N)N)C(=O)O)C[C@@H]3CCCC[C@@H]32)NC(=O)CNC(=O)[C@@H]2CCCN2C1=O [drawing 23] (H-[dR]RCPGCS[dTic][Oic]R-OH; disulfide 3-6)
Bradykinin receptor
  Ki: 1.5 ± 0.1 nM

## N=C(N)NCCC[C@@H](N)C(=O)N[C@@H](CCCNC(=N)N)C(=O)N[C@H]1CSSC[C@@H](C(=O)N[C@@H](CO)C(=O)N2Cc3ccccc3C[C@@H]2C(=O)N2[C@H](C(=O)N[C@@H](CCCNC(=N)N)C(=O)O)C[C@@H]3CCCC[C@@H]32)NC(=O)CNC(=O)[C@@H]2CCCN2C1=O [drawing 26] (H-[dR]RCPGCS[dTic][Oic]R-OH; disulfide 3-6)
[1]
  Kb: 251 nM

## Bradykinin (RPPGFSPFR; Bradykinin; UniProt P01042 381-389, looked up) [nonapeptide hormone, native agonist]
[2]
  destruction on a single passage through the pulmonary circulation: 98-99%
[3]
  half life in the systemic circulation: less than 30 seconds
